Source: US11324774B2, “Compositions of oral alkaline salts and metabolic acid inducers and uses thereof” (Augusta University Research Institute, Inc., priority 2018, dated 2022)
Where two headings read alike, the source gives them in different places.

Key:
blood = conditions: 0.1M NaHCO3 in drinking water
Method: Flow cytometry: With the exception of one group of rats (n=5+5), in all HS fed Dah SS rats, blood pressure telemetry devices were implanted prior to beginning the study. […] No surgical procedures were performed on LS fed Dahl SS rats or Sprague Dawley rats prior to tissue harvest. On the day of tissue harvest rats were anesthetized with isoflurane (2-5%) and a midline incision was performed. The abdominal aorta was catheterized for the collection of ˜2mL of arterial blood in a heparinized tube and the left kidney excised and immediately processed for flow cytometry. Antibody markers utilized for flow cytometry as well as references are given in the online methods.
In all flow studies, cells were then incubated with antibodies for surface markers for 20 minutes on ice in the dark (all antibodies from Pharmingen-BD-Biosciences, San Jose, Calif.). Cells were then washed with PBS, fixed and permeabilized using FOXP3/Transcription Factor Fix/Perm Buffer (eBiosciences, San Diego, Calif.) for 15 minutes in the dark on ice, and washed once again with PBS before incubation with antibodies for intracellular staining of Foxp3, TNFa, IL-10, and IL-17, on ice in the dark for 20 minutes (BD Biosciences). Cells were then washed and run through a four-color flow cytometer (FACS Calibur, Becton-Dickinson), and data were collected using CellQuest software.
In all flow studies, group identifiers were removed and flow cytometry analysis was performed by an investigator unaware of the hypothesis or the origin of samples. Samples were double-stained with control IgG and cell markers and were used to assess any spillover signal of fluorochromes; proper compensation was set to ensure the median fluorescence intensities of negative and positive cells were identical and were both gated populations. Gating was used to exclude dead cells and debris using forward and side scatterplots. In each analysis, 100,000 total events were collected. As a gating strategy, for each sample, isotype-matched controls were analyzed to set the appropriate gates. For each marker, samples were analyzed in duplicate measurements. To minimize false-positive events, the number of double- positive events detected with the isotype controls was subtracted from the number of double-positive cells stained with corresponding antibodies (not isotype control), respectively. Cells expressing a specific marker were reported as a percentage of the number of gated events.
(§1) Rat protocols: Dahl SS rats: All rats were maintained on low salt chow with ad libitum water (tap water). […] Following four days of low salt (LS) feeding, rats were placed on an 8% HS diet (AIN76A 8%; Dyets) for two weeks. 24 hour urine collections were obtained on day 3 of low salt and day 7 and day 14 of high salt feeding if applicable. Following 14 days of HS feeding, rats were anesthetized with isoflurane (2-5%) and tissue harvested for analysis.
Dahl SS rats on the LS protocol were treated identically to the HS protocol above except following 4 days of LS rats were anesthetized and tissue harvested for flow cytometric analysis prior to beginning a HS diet.

[1] = 0.1M in drinking water
Method: Urine collection: For urine collection rats were placed in rat metabolic cages for 24 hours (Nalgene, Rochester, N.Y.). Urine was collected and weighed for volume determination. Up to 10 mL of urine was stored at −80° C. for later analysis. All urinary data are presented as 24 hour urinary excretion.
Electrolytes: Urinary Na, K and Cl measurements were obtained using an electrolyte analyzer (Easylite; Medica Co, Bedford Mass.). Samples were diluted 1:10, 1 part urine to 9 parts Easylyte Urine Diluent as per the manufactures instructions.
as §1

parasympathetic activity = system: parasympathetic activity
Method: Changes in heart rate (HR) and RR-interval were monitored over the last 5 min of a 15 min period of quiet rest in a supine position to establish baseline values. Time-domain indices of heart rate variability (HRV) including the root mean square differences of successive normal sinus RR intervals (rMSSD) and the percentage of successive normal sinus RR intervals >50 ms (pNN50) were calculated from a 3-lead ECG that was continuously recorded via a Finapres NOVA (Finapres Medical Systems, The Netherlands). Following treatment an additional 5 min segment of data was collected in the same manner and used to calculate post-treatment values of rMSSD and pNN50.
Parasympathetic activity was determined as described above. Potassium levels were determined using standard clinical laboratory procedures (Labcorp).

[2] = system: kidney cells (M1/M2 macrophages)
[3] = system: spleen cells (M1/M2 macrophages)
[4] = system: kidney cells (M1/M2 macrophages); conditions: 4 days
splenic macrophages = conditions: 3 days, 0.1M in drinking water (unpublished data)
[5] = system: vascular endothelial function; conditions: in vivo, po
[6] = compared to vehicle (0.1M NaCl)
[7] = Kidney, 14 Days HS, 0.1M NaHCO3 in drinking water
[8] = Kidney, 3 days LS, 0.1M NaHCO3 in drinking water
[9] = Spleen, 14 Days HS, 0.1M NaHCO3 in drinking water

**Q.** With O=C([O-])O.[Na+] [NaHCO3, sodium bicarbonate] as the compound, how does the “CD3 (% total kidney)” value (blood; 14 Days HS) read?
**A.** 57 ± 2%

**Q.** What about the “CD4 (% of CD3)” value (blood; 14 Days HS) of the same compound?
**A.** 53 ± 2%

**Q.** What about the “CD44 (% of CD3)” value (blood; 14 Days HS) of the same compound?
**A.** 14 ± 2%

**Q.** And the “CD69 (% of CD3)” value (blood; 14 Days HS)?
**A.** 0.9 ± 0.3%

**Q.** What about the “FOXP3 (% of CD3/CD4)” value (blood; 14 Days HS) of the same compound?
**A.** 4.4 ± 0.6%

**Q.** And the “IL-17 (% of total kidney)” value (blood; 14 Days HS)?
**A.** 6 ± 1%

**Q.** What about the CD3 (blood; 3 days LS) of the same compound?
**A.** 57 ± 2%

**Q.** What about the CD4 (blood; 3 days LS) of the same compound?
**A.** 55 ± 1%

**Q.** What about the CD44 (blood; 3 days LS) of the same compound?
**A.** 18 ± 1%

**Q.** And the CD69 (blood; 3 days LS)?
**A.** 1.6 ± 0.5%

**Q.** And the FOXP3 (blood; 3 days LS)?
**A.** 5.8 ± 0.7%

**Q.** What about the IL-17 (blood; 3 days LS) of the same compound?
**A.** 5.6 ± 1.1%

**Q.** What about the “urinary K excretion” value [1, 6] of the same compound?
**A.** no effect

**Q.** And the “urinary Na excretion” value [1, 6]?
**A.** no effect

**Q.** What about the “urinary Cl excretion” value ([1]; compared to vehicle, p=0.03) of the same compound?
**A.** significantly lower

**Q.** And the “parasympathetic activity (rMSSD)” value (parasympathetic activity; ingestion for 2 weeks)?
**A.** improves

**Q.** And the “parasympathetic activity (rMSSD)” value (parasympathetic activity; single dose, 60 minutes)?
**A.** improves

**Q.** What about the “IL-10 expressing macrophages (M2-polarized macrophages) in the kidney” value ([2]; 14 days HS) of the same compound?
**A.** increase

**Q.** What about the “TNFα expressing macrophages (M1-polarized macrophages) in the kidney” value ([2]; 14 days HS, p<0.01) of the same compound?
**A.** decrease

**Q.** What about the “CD3 (% total kidney)” value [2, 7] of the same compound?
**A.** 1.8 ± 0.3%

**Q.** What about the “CD4 (% of CD3)” value [2, 7] of the same compound?
**A.** 55 ± 2%

**Q.** And the “CD11b/c (% total kidney)” value [2, 7]?
**A.** 0.4 ± 0.04%

**Q.** What about the “CD44 (% of CD3)” value [2, 7] of the same compound?
**A.** 36 ± 5%

**Q.** And the “CD69 (% of CD3)” value [2, 7]?
**A.** 2.8 ± 0.7%

**Q.** And the “FOXP3 (% of CD3/CD4)” value [2, 7]?
**A.** 3.3 ± 0.5%

**Q.** And the “IL-10 (% of total kidney)” value [2, 7]?
**A.** 4.2 ± 0.3%

**Q.** And the “IL-17 (% of total kidney)” value [2, 7]?
**A.** 0.7 ± 0.1%

**Q.** What about the “M1 (% of total kidney)” value [2, 7] of the same compound?
**A.** 0.12 ± 0.02%

**Q.** And the “M2 (% of total kidney)” value [2, 7]?
**A.** 0.2 ± 0.03%

**Q.** And the “TNFα (% of total kidney)” value [2, 7]?
**A.** 2.0 ± 0.3%

**Q.** And the CD3 [2, 8]?
**A.** 1.1 ± 0.3%

**Q.** What about the CD4 [2, 8] of the same compound?
**A.** 54 ± 2%

**Q.** And the CD11b/c [2, 8]?
**A.** 0.24 ± 0.02%

**Q.** And the CD44 [2, 8]?
**A.** 52 ± 3%

**Q.** And the CD69 [2, 8]?
**A.** 0.9 ± 0.3%

**Q.** What about the FOXP3 [2, 8] of the same compound?
**A.** 2.6 ± 0.5%

**Q.** What about the IL-10 [2, 8] of the same compound?
**A.** 4.8 ± 0.5%

**Q.** What about the IL-17 [2, 8] of the same compound?
**A.** 0.4 ± 0.2%

**Q.** And the M1 [2, 8]?
**A.** 0.16 ± 0.04%

**Q.** What about the M2 [2, 8] of the same compound?
**A.** 0.36 ± 0.02%

**Q.** And the TNFα [2, 8]?
**A.** 1.4 ± 0.2%

**Q.** And the “effect of NaHCO3 to promote M1 to M2 polarization in the kidney” value ([2]; after removal of the spleen or manipulation of the spleen to midline, HS diet for 2 weeks)?
**A.** completely abolished

**Q.** And the “macrophage polarization in kidney tissue” value ([2]; low salt fed Dahl SS rats, p=0.007)?
**A.** polarization from predominately M1 to M2

**Q.** What about the “macrophage polarization with both marker sets” value ([2]; spleen and kidney, 14 days HS, alternative markers CD68/CD163/CD206) of the same compound?
**A.** M1 to M2 polarization

**Q.** And the CD3 [3, 9]?
**A.** 15.3 ± 0.8%

**Q.** And the CD4 [3, 9]?
**A.** 53 ± 1%

**Q.** What about the CD11b/c [3, 9] of the same compound?
**A.** 7.3 ± 0.6%

**Q.** What about the CD44 [3, 9] of the same compound?
**A.** 35 ± 2%

**Q.** What about the CD69 [3, 9] of the same compound?
**A.** 7.2 ± 0.9%

**Q.** And the FOXP3 [3, 9]?
**A.** 6 ± 0.5%

**Q.** And the IL-10 [3, 9]?
**A.** 7.5 ± 0.7%

**Q.** What about the IL-17 [3, 9] of the same compound?
**A.** 2.8 ± 0.6%

**Q.** What about the M1 [3, 9] of the same compound?
**A.** 5.8 ± 0.5%

**Q.** And the M2 [3, 9]?
**A.** 8.3 ± 0.5%

**Q.** What about the TNFα [3, 9] of the same compound?
**A.** 3 ± 0.5%

**Q.** And the “macrophage polarization in splenic tissue” value ([3]; high salt fed, p=0.005)?
**A.** polarization from predominately M1 to M2

**Q.** What about the “dose dependence of the effect on polarization” value ([4]; 0.01M to 0.1M NaHCO3 in drinking water) of the same compound?
**A.** dose dependent

**Q.** What about the “lowest NaHCO3 concentration in drinking water with changes in polarization” value ([4]; low salt laboratory chow) of the same compound?
**A.** 0.01 M

**Q.** What about the “macrophage polarization in the kidney” value ([4]; out-bred Sprague Dawley rats) of the same compound?
**A.** promote M2 polarization

**Q.** And the M2 macrophages (splenic macrophages)?
**A.** no effect

**Q.** What about the splenic macrophages (splenic macrophages) of the same compound?
**A.** increased

**Q.** And the FMD [5]?
**A.** improves

**Q.** And the FMD/Shear [5]?
**A.** improves
